Assay results from the supplement of paper PMC8617591.

Experiments:
[1] = tested on: Mycobacterium tuberculosis Erdman (autoluminescent); assay: total FIC90 (Loewe) at 90% inhibition, three-drug combination (log2); higher = more antagonistic
Description: (§1)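 DiaMOND equipotent three-drug combination dose responses (10 doses, 1.5- or 2-fold spacing, centred on IC90) against autoluminescent M. tuberculosis Erdman in 8 in vitro models. Read-out is OD600, or luminescence for the intracellular and dormancy models, normalised to untreated wells. Hill-fit Einf, AUC25 and GRinf are potency metrics; FIC50 and FIC90 are total Loewe fractional inhibitory concentrations as log2 (negative = synergy).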

[2] = tested on: Mycobacterium tuberculosis Erdman (autoluminescent); assay: Einf, fitted maximum growth inhibition of three-drug combination (fraction); higher = stronger maximal inhibition
Description: as §1

[3] = tested on: Mycobacterium tuberculosis Erdman (autoluminescent); assay: total FIC50 (Loewe) at 50% inhibition, three-drug combination (log2); higher = more antagonistic
Description: as §1

[4] = tested on: Mycobacterium tuberculosis Erdman (autoluminescent); assay: AUC25, normalised area under dose response up to IC25 (three-drug combination) (fraction (0-1)); higher = more potent at low dose
Description: as §1

[5] = tested on: Mycobacterium tuberculosis Erdman (autoluminescent); assay: GRinf, maximum normalised growth rate inhibition (three-drug combination) (unitless (-1 to 1)); higher = less effect (negative = killing)
Description: as §1

NNC(=O)c1ccncc1 [isoniazid] + CC(=O)NC[C@H]1CN(c2ccc(N3CCOCC3)c(F)c2)C(=O)O1 [linezolid] + NC(=O)c1cnccn1 [pyrazinamide]
Details	AUC25, [4]	Einf, [2]	GRinf, [5]	total FIC50, [3]	total FIC90, [1]
in vitro model: acidic pH 5.7, time point: constant (~7 days, model-specific)	0.11	0.842	-0.287	-1.93	–
in vitro model: acidic pH 5.7, time point: terminal (~4-5 doublings, model-specific)	0.0984	0.983	-0.282	-1.83	-1.21
in vitro model: intracellular J774, time point: constant = terminal	–	0.956	-0.246	–	0.444

Details	AUC25, [4]	Einf, [2]	GRinf, [5]	total FIC50, [3]	total FIC90, [1]
in vitro model: butyrate, time point: constant (~7 days, model-specific)	0.108	0.91	0.0266	-1.9	1.62
in vitro model: butyrate, time point: terminal (~4-5 doublings, model-specific)	0.08	0.955	0.0226	-1.67	-1.24
in vitro model: cholesterol 0.05 mM, time point: constant (~7 days, model-specific)	0.144	0.686	-0.218	–	–
in vitro model: cholesterol 0.05 mM, time point: terminal (~4-5 doublings, model-specific)	0.14	0.89	-0.273	4.08	–
in vitro model: cholesterol-high 0.2 mM, time point: constant (~7 days, model-specific)	0.0969	0.893	-0.233	0.365	–
in vitro model: cholesterol-high 0.2 mM, time point: terminal (~4-5 doublings, model-specific)	0.0817	1	-0.765	0.683	0.315
in vitro model: dormancy (butyrate + nitrate, low O2), time point: constant (~7 days, model-specific)	0.0523	0.9	0.189	-1.89	-2.36
in vitro model: dormancy (butyrate + nitrate, low O2), time point: terminal (~4-5 doublings, model-specific)	0.0408	0.987	-0.229	-1.99	-2.42
in vitro model: standard 7H9 glycerol, time point: constant = terminal	0.0756	0.939	-0.0363	-5.13	–
in vitro model: valerate, time point: constant (~7 days, model-specific)	0.0944	0.836	0.0599	-2.58	–
in vitro model: valerate, time point: terminal (~4-5 doublings, model-specific)	0.0892	0.927	0.0322	-2.64	-3

NNC(=O)c1ccncc1 [isoniazid] + CC(=O)NC[C@H]1CN(c2ccc(N3CCOCC3)c(F)c2)C(=O)O1 [linezolid] + O=[N+]([O-])c1cn2c(n1)OC[C@@H](OCc1ccc(OC(F)(F)F)cc1)C2 [pretomanid]
Details	AUC25, [4]	Einf, [2]	GRinf, [5]	total FIC50, [3]	total FIC90, [1]
in vitro model: acidic pH 5.7, time point: constant (~7 days, model-specific)	0.0901	0.793	-0.0622	4.28	–
in vitro model: acidic pH 5.7, time point: terminal (~4-5 doublings, model-specific)	0.0757	0.953	-0.252	4.74	4.06
in vitro model: intracellular J774, time point: constant = terminal	–	0.984	-0.382	–	1.1

Details	AUC25, [4]	Einf, [2]	GRinf, [5]	total FIC50, [3]	total FIC90, [1]
in vitro model: butyrate, time point: constant (~7 days, model-specific)	0.103	0.921	-0.0322	2.79	1.15
in vitro model: butyrate, time point: terminal (~4-5 doublings, model-specific)	0.0738	0.963	-0.0424	2.83	3.23
in vitro model: cholesterol 0.05 mM, time point: constant (~7 days, model-specific)	0.129	0.69	-0.147	1.32	–
in vitro model: cholesterol 0.05 mM, time point: terminal (~4-5 doublings, model-specific)	0.124	0.912	-0.296	8.62	1.89
in vitro model: cholesterol-high 0.2 mM, time point: constant (~7 days, model-specific)	0.107	0.924	-0.361	0.772	–
in vitro model: cholesterol-high 0.2 mM, time point: terminal (~4-5 doublings, model-specific)	0.101	0.991	-0.726	0.566	1.06
in vitro model: dormancy (butyrate + nitrate, low O2), time point: constant (~7 days, model-specific)	0.0625	0.868	0.121	4.26	4.03
in vitro model: dormancy (butyrate + nitrate, low O2), time point: terminal (~4-5 doublings, model-specific)	0.0423	0.987	-0.233	4.19	4.02
in vitro model: standard 7H9 glycerol, time point: constant = terminal	0.0856	0.917	0.116	4.72	6.4
in vitro model: valerate, time point: constant (~7 days, model-specific)	0.126	0.88	0.0789	2.28	8.43
in vitro model: valerate, time point: terminal (~4-5 doublings, model-specific)	0.0856	0.93	0.029	2.36	2.72

NNC(=O)c1ccncc1 [isoniazid] + CO[C@H]1/C=C/O[C@@]2(C)Oc3c(C)c(O)c4c(O)c(c(/C=N/N5CCN(C6CCCC6)CC5)c(O)c4c3C2=O)NC(=O)/C(C)=C\C=C\[C@H](C)[C@H](O)[C@@H](C)[C@@H](O)[C@@H](C)[C@H](OC(C)=O)[C@@H]1C [rifapentine] + CO[C@H]1/C=C/O[C@@]2(C)Oc3c(C)c(O)c4c(O)c(c(/C=N/N5CCN(C)CC5)c(O)c4c3C2=O)NC(=O)/C(C)=C\C=C\[C@H](C)[C@H](O)[C@@H](C)[C@@H](O)[C@@H](C)[C@H](OC(C)=O)[C@@H]1C [rifampicin]
Details	AUC25, [4]	Einf, [2]	GRinf, [5]	total FIC50, [3]	total FIC90, [1]
in vitro model: acidic pH 5.7, time point: constant (~7 days, model-specific)	0.0821	0.87	-0.0825	0.753	–
in vitro model: acidic pH 5.7, time point: terminal (~4-5 doublings, model-specific)	0.0679	0.98	-0.129	0.528	0.407
in vitro model: intracellular J774, time point: constant = terminal	–	0.936	-0.1	–	0.217

Details	AUC25, [4]	Einf, [2]	GRinf, [5]	total FIC50, [3]	total FIC90, [1]
in vitro model: butyrate, time point: constant (~7 days, model-specific)	0.104	0.922	0.00523	0.263	0.467
in vitro model: butyrate, time point: terminal (~4-5 doublings, model-specific)	0.0874	0.967	0.000636	0.203	0.338
in vitro model: cholesterol 0.05 mM, time point: constant (~7 days, model-specific)	0.112	0.62	0.0102	0.806	–
in vitro model: cholesterol 0.05 mM, time point: terminal (~4-5 doublings, model-specific)	0.0884	0.883	-0.129	0.447	-0.00675
in vitro model: cholesterol-high 0.2 mM, time point: constant (~7 days, model-specific)	0.068	0.913	-0.352	0.176	–
in vitro model: cholesterol-high 0.2 mM, time point: terminal (~4-5 doublings, model-specific)	0.055	0.998	-0.762	0.475	0.196
in vitro model: dormancy (butyrate + nitrate, low O2), time point: constant (~7 days, model-specific)	0.0473	0.859	0.242	-0.0392	-0.445
in vitro model: dormancy (butyrate + nitrate, low O2), time point: terminal (~4-5 doublings, model-specific)	0.0455	0.984	-0.157	-0.192	-0.199
in vitro model: standard 7H9 glycerol, time point: constant = terminal	0.0666	0.906	0.0924	0.523	–
in vitro model: valerate, time point: constant (~7 days, model-specific)	0.0385	0.881	-0.0115	0.498	–
in vitro model: valerate, time point: terminal (~4-5 doublings, model-specific)	0.0262	0.941	0.00295	0.354	0.159
